Measurements taken from patent US9708314B2, “Heterocyclic amide compound” (NISSAN CHEMICAL INDUSTRIES, LTD., priority 2013, dated 2017).

Experiments:
Type in all cases: in vivo
[1] = system: Echinochloa crus-galli var. crus-galli; assay: Test Example 4: herbicidal effect by application to foliage (diluvial soil, plastic box); settings: for H (Echinochloa crus-galli var. crus-galli) herbicidal effect: application to foliage, application herbicide amount 320 g/ha; for H: Application herbicide amount 320 g/ha
Summary of the method: (§1)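 Greenhouse plants (25° C. to 30° C., 14 d, diluvial soil) receive a foliar spray of water-diluted emulsifiable formulation at defined g/ha. Grading after 3 weeks uses a six-step herbicidal-ratio scale, with 4 covering 70% to <90% and 1 covering 5% to <20%.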

[2] = system: Digitaria ciliaris; assay: as above; settings: for F (Digitaria ciliaris) herbicidal effect: application to foliage, application herbicide amount 320 g/ha; for F: Application herbicide amount 320 g/ha
Summary of the method: as §1

[3] = system: Veronica persica; assay: as above; settings: for R (Veronica persica) herbicidal effect: application to foliage, application herbicide amount 320 g/ha; for R: Application herbicide amount 320 g/ha
Summary of the method: as §1

[4] = system: Chenopodium album; assay: as above; settings: for O (Chenopodium album) herbicidal effect: application to foliage, application herbicide amount 320 g/ha; for O: Application herbicide amount 320 g/ha
Summary of the method: as §1

[5] = system: Apera spica-venti.; assay: as above; settings: for L (Apera spica-venti.) herbicidal effect: application to foliage, application herbicide amount 320 g/ha; for L: Application herbicide amount 320 g/ha
Summary of the method: as §1

[6] = system: Avena fatua; assay: as above; settings: for I (Avena fatua) herbicidal effect: application to foliage, application herbicide amount 320 g/ha; for I: Application herbicide amount 320 g/ha
Summary of the method: as §1

[7] = system: Abutilon theophrasti; assay: as above; settings: for M (Abutilon theophrasti) herbicidal effect: application to foliage, application herbicide amount 320 g/ha; for M: Application herbicide amount 320 g/ha
Summary of the method: as §1

[8] = system: Setaria viridis; assay: as above; settings: for G (Setaria viridis) herbicidal effect: application to foliage, application herbicide amount 320 g/ha; for G: Application herbicide amount 320 g/ha
Summary of the method: as §1

[9] = system: Galium spurium; assay: as above; settings: for Q (Galium spurium) herbicidal effect: application to foliage, application herbicide amount 320 g/ha; for Q: Application herbicide amount 320 g/ha
Summary of the method: as §1

[10] = system: Lolium multiflorum Lam.; assay: as above; settings: for K (Lolium multiflorum Lam.) herbicidal effect: application to foliage, application herbicide amount 320 g/ha; for K: Application herbicide amount 320 g/ha
Summary of the method: as §1

[11] = system: Alopecurus myosuroides; assay: as above; settings: for J (Alopecurus myosuroides) herbicidal effect: application to foliage, application herbicide amount 320 g/ha; for J: Application herbicide amount 320 g/ha
Summary of the method: as §1

[12] = system: Echinochloa crus-galli var. crus-galli; assay: Test Example 3: herbicidal effect by application to foliage (Wagner pot, water depth 0.1-0.5 cm); settings: Nineteenth Table; for H (herbicidal effect grade): application to foliage
Summary of the method: (§2)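 Visual 0–5 rating of herbicidal ratio, taken 3 weeks after foliar spray of a diluted emulsion formulation at rates expressed as g/ha. Plants had been sown in alluvial soil under 0.1–0.5 cm water and grown 14 days at 25–30 °C under glass before application.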

[13] = system: Cyperus difformis; assay: as above; settings: Nineteenth Table; for E (herbicidal effect grade): application to foliage
Summary of the method: as §2

[14] = system: Leptochloa chinensis; assay: as above; settings: Nineteenth Table; for D (herbicidal effect grade): application to foliage
Summary of the method: as §2

[15] = application herbicide amount 400 g/ha
[16] = application herbicide amount 320 g/ha

SMILES	H (Echinochloa crus-galli var. crus-galli) herbicidal effect [1]	F (Digitaria ciliaris) herbicidal effect [2]	R (Veronica persica) herbicidal effect [3]	O (Chenopodium album) herbicidal effect [4]	L (Apera spica-venti.) herbicidal effect [5]	I (Avena fatua) herbicidal effect [6]	M (Abutilon theophrasti) herbicidal effect [7]	G (Setaria viridis) herbicidal effect [8]	Q (Galium spurium) herbicidal effect [9]	K (Lolium multiflorum Lam.) herbicidal effect [10]	J (Alopecurus myosuroides) herbicidal effect [11]	H [1]	F [2]	R [3]	O [4]	L [5]	I [6]	M [7]	G [8]	Q [9]	other results
CCC(CC)c1nnc2c(C(=O)Nc3nnc(C)o3)ccc(C(F)(F)F)n12 [1-011]	5 (Herbicidal ratio of 90% or more (almost completely withered))	5 (Herbicidal ratio of 90% or more (almost completely withered))	5 (Herbicidal ratio of 90% or more (almost completely withered))	5 (Herbicidal ratio of 90% or more (almost completely withered))	2 (Herbicidal ratio of 20% or more and less than 40%)	1 (Herbicidal ratio of 5% or more and less than 20%)	5 (Herbicidal ratio of 90% or more (almost completely withered))	4 (Herbicidal ratio of 70% or more and less than 90%)	2 (Herbicidal ratio of 20% or more and less than 40%)	1 (Herbicidal ratio of 5% or more and less than 20%)	1 (Herbicidal ratio of 5% or more and less than 20%)										H (Echinochloa crus-galli var. crus-galli) herbicidal ratio grade [12, 15]: 5 (Herbicidal ratio of 90% or more (almost completely withered)); E (Cyperus difformis) herbicidal ratio grade [13, 15]: 5 (Herbicidal ratio of 90% or more (almost completely withered)); D (Leptochloa chinensis) herbicidal ratio grade [14, 15]: 5 (Herbicidal ratio of 90% or more (almost completely withered))
Cc1nnc(NC(=O)c2ccc(C(F)(F)F)n3c(-c4cc(Cl)cc(Cl)c4)nnc23)o1 [1-071]												0 (Herbicidal ratio of 5% or less (almost no effect))	1 (Herbicidal ratio of 5% or more and less than 20%)	3 (Herbicidal ratio of 40% or more and less than 70%)	5 (Herbicidal ratio of 90% or more (almost completely withered))	0 (Herbicidal ratio of 5% or less (almost no effect))	0 (Herbicidal ratio of 5% or less (almost no effect))	3 (Herbicidal ratio of 40% or more and less than 70%)	0 (Herbicidal ratio of 5% or less (almost no effect))	1 (Herbicidal ratio of 5% or more and less than 20%)	K [10]: 0 (Herbicidal ratio of 5% or less (almost no effect)); J [11]: 0 (Herbicidal ratio of 5% or less (almost no effect)); H (herbicidal effect grade) [12, 16]: 0 (Herbicidal ratio of 5% or less (almost no effect)); E (herbicidal effect grade) [13, 16]: 5 (Herbicidal ratio of 90% or more (almost completely withered)); D (herbicidal effect grade) [14, 16]: 3 (Herbicidal ratio of 40% or more and less than 70%)
Cc1nnc(NC(=O)c2ccc(C(F)(F)F)n3c(N(C)c4ccccc4)nnc23)o1 [1-086]												5 (Herbicidal ratio of 90% or more (almost completely withered))	5 (Herbicidal ratio of 90% or more (almost completely withered))	4 (Herbicidal ratio of 70% or more and less than 90%)	5 (Herbicidal ratio of 90% or more (almost completely withered))	0 (Herbicidal ratio of 5% or less (almost no effect))	0 (Herbicidal ratio of 5% or less (almost no effect))	5 (Herbicidal ratio of 90% or more (almost completely withered))	4 (Herbicidal ratio of 70% or more and less than 90%)	1 (Herbicidal ratio of 5% or more and less than 20%)	K [10]: 0 (Herbicidal ratio of 5% or less (almost no effect)); J [11]: 0 (Herbicidal ratio of 5% or less (almost no effect)); H (herbicidal effect grade) [12, 16]: 5 (Herbicidal ratio of 90% or more (almost completely withered)); E (herbicidal effect grade) [13, 16]: 5 (Herbicidal ratio of 90% or more (almost completely withered)); D (herbicidal effect grade) [14, 16]: 5 (Herbicidal ratio of 90% or more (almost completely withered))
COc1ccc(-c2nnc3c(C(=O)Nc4nnc(C)o4)ccc(C(F)(F)F)n23)cc1 [1-016]	5 (Herbicidal ratio of 90% or more (almost completely withered))	4 (Herbicidal ratio of 70% or more and less than 90%)	4 (Herbicidal ratio of 70% or more and less than 90%)	5 (Herbicidal ratio of 90% or more (almost completely withered))	0 (Herbicidal ratio of 5% or less (almost no effect))	1 (Herbicidal ratio of 5% or more and less than 20%)	5 (Herbicidal ratio of 90% or more (almost completely withered))	2 (Herbicidal ratio of 20% or more and less than 40%)	2 (Herbicidal ratio of 20% or more and less than 40%)	1 (Herbicidal ratio of 5% or more and less than 20%)	1 (Herbicidal ratio of 5% or more and less than 20%)										H (Echinochloa crus-galli var. crus-galli) herbicidal ratio grade [12, 16]: 5 (Herbicidal ratio of 90% or more (almost completely withered)); E (Cyperus difformis) herbicidal ratio grade [13, 16]: 5 (Herbicidal ratio of 90% or more (almost completely withered)); D (Leptochloa chinensis) herbicidal ratio grade [14, 16]: 5 (Herbicidal ratio of 90% or more (almost completely withered))
Cc1nnc(NC(=O)c2ccc(C(F)(F)F)n3c(-c4ccc(F)cc4)nnc23)o1 [1-044]	5 (Herbicidal ratio of 90% or more (almost completely withered))	4 (Herbicidal ratio of 70% or more and less than 90%)	5 (Herbicidal ratio of 90% or more (almost completely withered))	5 (Herbicidal ratio of 90% or more (almost completely withered))	4 (Herbicidal ratio of 70% or more and less than 90%)	1 (Herbicidal ratio of 5% or more and less than 20%)	5 (Herbicidal ratio of 90% or more (almost completely withered))	4 (Herbicidal ratio of 70% or more and less than 90%)	3 (Herbicidal ratio of 40% or more and less than 70%)	2 (Herbicidal ratio of 20% or more and less than 40%)	1 (Herbicidal ratio of 5% or more and less than 20%)										H (Echinochloa crus-galli var. crus-galli) herbicidal ratio grade [12, 16]: 5 (Herbicidal ratio of 90% or more (almost completely withered)); E (Cyperus difformis) herbicidal ratio grade [13, 16]: 4 (Herbicidal ratio of 70% or more and less than 90%); D (Leptochloa chinensis) herbicidal ratio grade [14, 16]: 4 (Herbicidal ratio of 70% or more and less than 90%)
Cc1nnc(NC(=O)c2cc(C)c(C(F)(F)F)n3c(C(C)C)nnc23)o1 [1-075]												3 (Herbicidal ratio of 40% or more and less than 70%)	3 (Herbicidal ratio of 40% or more and less than 70%)	3 (Herbicidal ratio of 40% or more and less than 70%)	5 (Herbicidal ratio of 90% or more (almost completely withered))	0 (Herbicidal ratio of 5% or less (almost no effect))	0 (Herbicidal ratio of 5% or less (almost no effect))	1 (Herbicidal ratio of 5% or more and less than 20%)	1 (Herbicidal ratio of 5% or more and less than 20%)	0 (Herbicidal ratio of 5% or less (almost no effect))	K [10]: 0 (Herbicidal ratio of 5% or less (almost no effect)); J [11]: 0 (Herbicidal ratio of 5% or less (almost no effect)); H (herbicidal effect grade) [12, 16]: 5 (Herbicidal ratio of 90% or more (almost completely withered)); E (herbicidal effect grade) [13, 16]: 4 (Herbicidal ratio of 70% or more and less than 90%); D (herbicidal effect grade) [14, 16]: 4 (Herbicidal ratio of 70% or more and less than 90%)
